From paper PMC11413503, “SCR‐7952, a highly selective MAT2A inhibitor, demonstrates synergistic antitumor activities in combination with the S‐adenosylmethionine‐competitive or the methylthioadenosine‐cooperative protein arginine methyltransferase 5 inhibitors in methylthioadenosine phosphorylase‐deleted tumors” (MedComm, 2024)
pEC50, pIC50: −log10 of the molar value.

Columns and labels:
A549 = experiment: Proliferation assay (CellTiter-Glo); type: cell-based; settings: Homo sapiens, A549, 144 h; MTAP-deleted, 6-day; read-out: IC50, anti-proliferation A549
Protocol: (§1) HCT116 colon carcinoma parental (WT) cells with MTAP ^−/− isogenic clone were established by KYinno Biotechnology Co., Ltd. (Beijing, China). A549, MIA PaCa‐2, and WI‐38 cell lines were obtained from ATCC. NCI‐H838 was obtained from Cobioer Biosciences. HCT116 WT and KO MTAP cells were cultured in McCoy's 5A media containing 10% FBS. A549 cells were cultured in DMEM media containing 10% FBS. MIA PaCa‐2 cells were cultured in DMEM media containing 10% FBS and 2.5% horse serum. NCI‐H838 cells were cultured in PRMI 1640 media containing 10% FBS. WI‐38 cells were cultured in EMEM media containing 10% FBS.
(§2) Cells were plated in 96‐well cell culture plates and allowed to attach overnight at 37°C in 5% CO2. Compounds diluted in DMSO were added to cells in a dose–response format for 6 days. The final concentration of DMSO was 0.1% in media. Cell proliferation was measured using CellTiter‐Glo Cell Viability Assay (Promega). The IC50 values were calculated using the GraphPad Prism 9. Drug combination effects were analyzed using Combenefit software.[45]

HCT116 MTAP−/− cells [1] = experiment: Proliferation assay (CellTiter-Glo); type: cell-based
Protocol: as §1, §2

HCT116 WT cells = experiment: Proliferation assay (CellTiter-Glo); type: cell-based; settings: Homo sapiens, HCT-116, 144 h; 6-day treatment; read-out: IC50, anti-proliferation HCT116 WT
Protocol: as §1, §2

MIA PaCa-2 = experiment: Proliferation assay (CellTiter-Glo); type: cell-based; settings: Homo sapiens, MIA PaCa-2, 144 h; MTAP-deleted, 6-day; read-out: IC50, anti-proliferation MIA PaCa-2
Protocol: as §1, §2

NCI-H838 = experiment: Proliferation assay (CellTiter-Glo); type: cell-based; settings: Homo sapiens, NCI-H838, 144 h; MTAP-deleted, 6-day; read-out: IC50, anti-proliferation NCI-H838
Protocol: as §1, §2

[2] = system: WI-38 (human fetal lung fibroblast cells); experiment: Proliferation assay (CellTiter-Glo); type: cell-based; settings: MTAP WT; read-out: IC50, anti-proliferation WI-38
Protocol: as §1, §2

HCT116 MTAP−/− cells [3] = experiment: Combination proliferation assay with PRMT5 inhibitors (Bliss model); type: cell-based; settings: 8 days
Protocol: as §2, with “Compounds diluted in DMSO were added to cells in a dose–response format for 6 days.” left out

[4] = Plasma pharmacokinetics after multiple administration in xenograft mice; type: in vivo; settings: SCR-7952 1.0 mg/kg
ADRA1A = ADRA1A (Homo sapiens, UniProt P35348); experiment: Mini-profiling panel, GPCR; type: cell-based
Protocol: (§3) Further insight into selectivity was evaluated in a functional panel of 47 representative targets closely related to human life activities, including G protein‐coupled receptors, transporters, ion channels, kinases, nuclear hormone receptor targets, and nonkinase enzymes (Table S3).

CHRM3 = CHRM3 (Homo sapiens, UniProt P20309); experiment: Mini-profiling panel, GPCR; type: cell-based
Protocol: as §3

CNR1 = CNR1 (Homo sapiens, UniProt P21554); experiment: Mini-profiling panel, GPCR; type: cell-based
Protocol: as §3

CNR2 = CNR2 (Homo sapiens, UniProt P34972); experiment: Mini-profiling panel, GPCR; type: cell-based
Protocol: as §3

DRD1 = DRD1 (Homo sapiens, UniProt P21728); experiment: Mini-profiling panel, GPCR; type: cell-based
Protocol: as §3

HTR1A = HTR1A (Homo sapiens, UniProt P08908); experiment: Mini-profiling panel, GPCR; type: cell-based
Protocol: as §3

HTR1B = HTR1B (Homo sapiens, UniProt P28222); experiment: Mini-profiling panel, GPCR; type: cell-based
Protocol: as §3

HTR2A = HTR2A (Homo sapiens, UniProt P28223); experiment: Mini-profiling panel, GPCR; type: cell-based
Protocol: as §3

HTR2B = HTR2B (Homo sapiens, UniProt P41595); experiment: Mini-profiling panel, GPCR; type: cell-based
Protocol: as §3

OPRD1 = OPRD1 (Homo sapiens, UniProt P41143); experiment: Mini-profiling panel, GPCR; type: cell-based
Protocol: as §3

OPRM1 = OPRM1 (Homo sapiens, UniProt P35372); experiment: Mini-profiling panel, GPCR; type: cell-based
Protocol: as §3

HTR3A = HTR3A (Homo sapiens, UniProt P46098); experiment: Mini-profiling panel, ion channel; type: cell-based
Protocol: as §3

KvLQT1/mink = KvLQT1/mink (Homo sapiens, UniProt P51787); experiment: Mini-profiling panel, ion channel; type: cell-based
Protocol: as §3

NAV1.5 = NAV1.5 (Homo sapiens, UniProt Q14524); experiment: Mini-profiling panel, ion channel; type: cell-based
Protocol: as §3

NMDAR (1A/2B) = NMDAR (1A/2B) (Homo sapiens, UniProt Q05586+Q13224); experiment: Mini-profiling panel, ion channel; type: cell-based
Protocol: as §3

nAChR(a4/b2) = nAChR(a4/b2) (Homo sapiens, UniProt P17787+P43681); experiment: Mini-profiling panel, ion channel; type: cell-based
Protocol: as §3

VEGFR2 = VEGFR2 (Homo sapiens, UniProt P35968); experiment: Mini-profiling panel, kinase; type: biochemical; settings: Kinases; read-out: VEGFR2 Inhibitor IC50

OPRM1, sequence (P35372 whole entry, species assumed): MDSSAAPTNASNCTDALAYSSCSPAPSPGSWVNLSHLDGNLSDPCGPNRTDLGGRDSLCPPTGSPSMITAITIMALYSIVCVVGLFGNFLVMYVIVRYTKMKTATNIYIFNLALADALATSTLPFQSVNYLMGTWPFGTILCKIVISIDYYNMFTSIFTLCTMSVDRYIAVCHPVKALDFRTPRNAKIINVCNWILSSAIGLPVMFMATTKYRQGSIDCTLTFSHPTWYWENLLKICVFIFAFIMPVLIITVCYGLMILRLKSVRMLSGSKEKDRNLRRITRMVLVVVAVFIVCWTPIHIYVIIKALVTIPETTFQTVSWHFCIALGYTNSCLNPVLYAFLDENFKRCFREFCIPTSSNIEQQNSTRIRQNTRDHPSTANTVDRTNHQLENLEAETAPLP
HTR2A, sequence (P28223 whole entry): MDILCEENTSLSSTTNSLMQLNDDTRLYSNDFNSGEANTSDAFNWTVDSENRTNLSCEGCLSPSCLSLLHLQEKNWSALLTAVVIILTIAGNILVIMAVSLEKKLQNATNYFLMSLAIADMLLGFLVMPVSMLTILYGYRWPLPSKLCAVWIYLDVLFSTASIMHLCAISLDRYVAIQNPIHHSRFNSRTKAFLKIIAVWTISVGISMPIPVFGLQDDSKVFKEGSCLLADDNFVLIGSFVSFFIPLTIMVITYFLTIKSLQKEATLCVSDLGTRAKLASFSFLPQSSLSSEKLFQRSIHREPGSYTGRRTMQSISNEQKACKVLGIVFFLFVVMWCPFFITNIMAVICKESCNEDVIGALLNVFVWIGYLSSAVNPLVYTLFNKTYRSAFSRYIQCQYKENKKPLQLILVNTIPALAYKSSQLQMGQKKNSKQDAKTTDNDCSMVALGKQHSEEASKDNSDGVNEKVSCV
KvLQT1/mink, sequence (P51787 whole entry): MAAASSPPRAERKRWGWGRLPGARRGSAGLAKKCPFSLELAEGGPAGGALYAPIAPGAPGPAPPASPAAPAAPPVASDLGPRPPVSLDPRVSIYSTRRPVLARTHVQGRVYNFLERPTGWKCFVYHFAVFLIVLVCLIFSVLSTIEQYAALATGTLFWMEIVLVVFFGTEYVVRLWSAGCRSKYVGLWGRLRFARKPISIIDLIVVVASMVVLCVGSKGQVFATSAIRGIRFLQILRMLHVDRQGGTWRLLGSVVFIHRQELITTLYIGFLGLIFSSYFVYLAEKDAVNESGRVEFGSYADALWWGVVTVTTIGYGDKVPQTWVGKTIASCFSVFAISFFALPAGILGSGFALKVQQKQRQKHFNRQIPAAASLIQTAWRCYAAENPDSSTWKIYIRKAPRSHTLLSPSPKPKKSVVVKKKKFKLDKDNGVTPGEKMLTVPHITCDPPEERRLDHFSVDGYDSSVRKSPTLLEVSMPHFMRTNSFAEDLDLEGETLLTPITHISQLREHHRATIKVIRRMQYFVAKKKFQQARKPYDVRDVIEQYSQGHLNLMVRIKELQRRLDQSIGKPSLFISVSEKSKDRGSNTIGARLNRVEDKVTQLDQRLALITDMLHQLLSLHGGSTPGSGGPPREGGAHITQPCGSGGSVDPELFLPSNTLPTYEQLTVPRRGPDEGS
HTR3A, sequence (P46098 24-478, species assumed): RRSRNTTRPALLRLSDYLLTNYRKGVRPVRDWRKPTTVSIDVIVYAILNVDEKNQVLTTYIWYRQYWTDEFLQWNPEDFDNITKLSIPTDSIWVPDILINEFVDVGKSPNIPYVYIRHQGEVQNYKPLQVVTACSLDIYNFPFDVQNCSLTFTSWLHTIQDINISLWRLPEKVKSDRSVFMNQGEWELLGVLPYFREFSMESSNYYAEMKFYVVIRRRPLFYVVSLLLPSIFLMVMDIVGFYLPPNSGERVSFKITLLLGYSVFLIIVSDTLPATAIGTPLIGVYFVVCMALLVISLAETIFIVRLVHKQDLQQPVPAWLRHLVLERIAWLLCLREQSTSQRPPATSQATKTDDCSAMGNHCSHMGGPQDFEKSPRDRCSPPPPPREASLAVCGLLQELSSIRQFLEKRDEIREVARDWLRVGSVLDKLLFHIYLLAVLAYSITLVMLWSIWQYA
HTR1A, sequence (P08908 whole entry, species assumed): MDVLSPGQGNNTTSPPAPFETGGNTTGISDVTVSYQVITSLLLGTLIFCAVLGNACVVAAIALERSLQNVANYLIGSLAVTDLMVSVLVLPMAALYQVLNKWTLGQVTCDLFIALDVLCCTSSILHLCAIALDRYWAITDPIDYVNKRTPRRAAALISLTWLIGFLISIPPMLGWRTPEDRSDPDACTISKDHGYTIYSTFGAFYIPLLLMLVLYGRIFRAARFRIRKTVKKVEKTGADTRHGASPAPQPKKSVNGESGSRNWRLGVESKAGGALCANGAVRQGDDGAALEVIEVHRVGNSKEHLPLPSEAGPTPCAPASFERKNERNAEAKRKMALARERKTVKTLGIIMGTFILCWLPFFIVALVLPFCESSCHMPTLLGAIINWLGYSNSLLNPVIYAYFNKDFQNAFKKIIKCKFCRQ
NMDAR (1A/2B), sequence (Q13224 27-1484, other chains not shown): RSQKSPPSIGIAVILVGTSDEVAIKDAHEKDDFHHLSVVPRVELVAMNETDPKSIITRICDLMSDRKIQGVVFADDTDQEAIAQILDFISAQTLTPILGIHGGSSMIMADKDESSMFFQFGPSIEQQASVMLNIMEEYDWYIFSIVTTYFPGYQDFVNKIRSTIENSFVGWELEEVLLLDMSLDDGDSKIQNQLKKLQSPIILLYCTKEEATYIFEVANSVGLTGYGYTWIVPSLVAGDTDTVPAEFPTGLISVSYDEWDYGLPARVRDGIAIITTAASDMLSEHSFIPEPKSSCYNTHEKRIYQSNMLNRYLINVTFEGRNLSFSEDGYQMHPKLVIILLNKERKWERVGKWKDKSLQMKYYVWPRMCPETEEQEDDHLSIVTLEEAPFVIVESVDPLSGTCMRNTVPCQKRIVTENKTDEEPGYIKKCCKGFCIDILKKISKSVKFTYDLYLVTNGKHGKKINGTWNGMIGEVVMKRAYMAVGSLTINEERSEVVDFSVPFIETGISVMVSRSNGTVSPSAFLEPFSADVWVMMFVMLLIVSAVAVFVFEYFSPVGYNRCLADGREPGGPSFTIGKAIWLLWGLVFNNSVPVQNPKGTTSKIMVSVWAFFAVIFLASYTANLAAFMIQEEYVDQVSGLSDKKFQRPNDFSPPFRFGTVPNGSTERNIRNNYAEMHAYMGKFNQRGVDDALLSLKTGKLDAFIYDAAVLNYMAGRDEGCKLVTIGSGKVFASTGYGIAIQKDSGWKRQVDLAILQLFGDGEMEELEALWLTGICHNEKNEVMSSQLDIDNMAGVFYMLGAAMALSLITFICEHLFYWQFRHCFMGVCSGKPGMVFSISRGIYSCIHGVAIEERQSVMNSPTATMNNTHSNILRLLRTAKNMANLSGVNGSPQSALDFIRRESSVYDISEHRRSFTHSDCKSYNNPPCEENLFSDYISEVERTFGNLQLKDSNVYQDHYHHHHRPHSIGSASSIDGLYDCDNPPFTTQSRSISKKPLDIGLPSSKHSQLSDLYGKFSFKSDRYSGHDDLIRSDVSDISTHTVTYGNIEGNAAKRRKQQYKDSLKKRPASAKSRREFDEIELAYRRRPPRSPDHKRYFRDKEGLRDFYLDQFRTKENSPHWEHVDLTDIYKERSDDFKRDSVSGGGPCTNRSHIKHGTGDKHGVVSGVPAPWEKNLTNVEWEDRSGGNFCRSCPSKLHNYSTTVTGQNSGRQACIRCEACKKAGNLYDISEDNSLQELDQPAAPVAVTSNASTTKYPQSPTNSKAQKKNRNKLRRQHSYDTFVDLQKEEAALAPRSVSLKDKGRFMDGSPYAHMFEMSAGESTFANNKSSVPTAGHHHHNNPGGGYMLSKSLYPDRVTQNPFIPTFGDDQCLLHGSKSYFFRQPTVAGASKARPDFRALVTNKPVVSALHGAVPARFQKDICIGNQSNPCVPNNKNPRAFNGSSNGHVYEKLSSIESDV
HTR1B, sequence (P28222 whole entry, species assumed): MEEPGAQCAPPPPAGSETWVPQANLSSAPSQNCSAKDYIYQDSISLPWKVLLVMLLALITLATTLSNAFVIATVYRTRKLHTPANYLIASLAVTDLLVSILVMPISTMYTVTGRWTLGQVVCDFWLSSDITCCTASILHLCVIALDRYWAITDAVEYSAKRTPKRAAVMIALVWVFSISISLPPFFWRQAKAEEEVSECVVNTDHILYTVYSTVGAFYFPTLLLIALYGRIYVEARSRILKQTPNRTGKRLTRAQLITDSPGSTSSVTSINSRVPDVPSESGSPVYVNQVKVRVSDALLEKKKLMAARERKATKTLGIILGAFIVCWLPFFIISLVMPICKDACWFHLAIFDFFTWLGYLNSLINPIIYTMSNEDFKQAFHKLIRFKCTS
CHRM3, sequence (P20309 whole entry, species assumed): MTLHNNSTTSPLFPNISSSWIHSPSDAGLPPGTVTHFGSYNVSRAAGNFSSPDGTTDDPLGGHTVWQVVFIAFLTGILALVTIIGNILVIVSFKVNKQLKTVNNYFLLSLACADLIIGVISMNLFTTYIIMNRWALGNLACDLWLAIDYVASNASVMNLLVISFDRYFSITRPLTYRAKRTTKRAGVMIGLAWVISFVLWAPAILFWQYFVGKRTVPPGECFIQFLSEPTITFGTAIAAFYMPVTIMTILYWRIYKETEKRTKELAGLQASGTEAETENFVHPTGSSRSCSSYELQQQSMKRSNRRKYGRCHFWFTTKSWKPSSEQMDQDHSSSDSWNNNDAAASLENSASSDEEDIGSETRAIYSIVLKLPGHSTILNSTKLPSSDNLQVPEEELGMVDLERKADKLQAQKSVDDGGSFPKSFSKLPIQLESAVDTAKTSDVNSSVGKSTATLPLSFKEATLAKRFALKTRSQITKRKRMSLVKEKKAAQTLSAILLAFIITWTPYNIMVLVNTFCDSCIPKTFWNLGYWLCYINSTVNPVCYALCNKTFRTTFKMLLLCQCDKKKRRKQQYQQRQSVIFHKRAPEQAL

Cn1cnc2c(=O)n(-c3cccnc3C3CC3)c3cc(Cl)ccc3c21 [SCR‐7952, 7‐chloro‐5‐(2‐cyclopropylpyridin‐3‐yl)‐1‐methyl‐1,5‐dihydro‐4H‐imidazo[4,5‐c]quinolin‐4‐one]
pIC50 (A549): 6.91 | fold difference of antiproliferative effect of SCR-7952 and AG-270 (HCT116 MTAP−/− cells [1]; HCT116 MTAP−/− cells, 34.4 vs. 300.4 nM): 8.7 fold | pIC50 (HCT116 MTAP−/− cells [1]; Homo sapiens, HCT-116, 144 h, 6-day treatment, read-out: IC50, anti-proliferation HCT116 MTAP−/−): 7.46 | pIC50 (HCT116 WT cells): 6.31 | pIC50 (MIA PaCa-2): 7.71 | pIC50 (NCI-H838): 8.37 | pIC50 [2]: 5.37 | interaction on cell growth in combination with JNJ-64619178 (HCT116 MTAP−/− cells [3]): synergistic interactions | interaction on cell growth in combination with MRTX-1719 (HCT116 MTAP−/− cells [3]): synergistic interactions | synergistic effect in combination with GSK3326595 (HCT116 MTAP−/− cells [3]): much weaker | AUC(0-t) ([4]; Nu/Nu, mouse, oral, plasma, HCT116 MTAP−/− xenograft mice, read-out: AUC0-24h total): 15800 ng·h/mL | AUC0-24h free drug ([4]; calculated): 1442 ng·h/mL | pEC50 (ADRA1A): < 5.00 | pIC50 (ADRA1A): < 5.00 | pEC50 (CHRM3): < 5.00 | pIC50 (CHRM3): < 5.00 | pEC50 (CNR1): < 5.00 | pIC50 (CNR1): < 5.00 | pEC50 (CNR2): < 5.00 | pIC50 (CNR2): < 5.00 | pEC50 (DRD1): < 5.00 | pIC50 (DRD1): < 5.00 | pEC50 (HTR1A): < 5.00 | pIC50 (HTR1A): < 5.00 | pEC50 (HTR1B): < 5.00 | pIC50 (HTR1B): < 5.00 | pEC50 (HTR2A): < 5.00 | pIC50 (HTR2A): < 5.00 | pEC50 (HTR2B): < 5.00 | pIC50 (HTR2B): < 5.00 | pEC50 (OPRD1): < 5.00 | pIC50 (OPRD1): < 5.00 | pEC50 (OPRM1): < 5.00 | pIC50 (OPRM1): < 5.00 | pEC50 (HTR3A): < 5.00 | pIC50 (HTR3A): < 5.00 | pEC50 (KvLQT1/mink): < 5.00 | pIC50 (KvLQT1/mink): < 5.00 | pIC50 (NAV1.5): < 5.00 | pEC50 (NMDAR (1A/2B)): < 5.00 | pIC50 (NMDAR (1A/2B)): < 5.00 | pEC50 (nAChR(a4/b2)): < 5.00 | pIC50 (nAChR(a4/b2)): < 5.00 | pIC50 (VEGFR2): < 5.00
